From ChEMBL document CHEMBL3044797 (Crop Prot, 2008) come the findings set out here.

Values after ≈ are worked out from the molar mass of the structure shown.

Assay [1] relates to Fusarium graminearum. Nature of the assay: Fungicidal activity against compound-resistant Fusarium graminearum isolate. The assay is classed as functional, organism-based.
For assay [2], the system named is Fusarium graminearum. Description: Fungicidal activity against carbendazim-resistant Fusarium graminearum isolate. The assay is classed as functional, organism-based.

In the case of `CCOC(=O)/C(C#N)=C(/N)c1ccccc1`, the EC50 (in general, the midpoint of the concentration-response curve) turned out to be 0.14 µg/mL (≈ 0.647 µM) in the assay with Fusarium graminearum [1] and 0.115 µg/mL (≈ 0.532 µM) with Fusarium graminearum [2].
